Data taken from patent US9624288B2, “Engineered receptors and their use” (University of Pittsburgh—Of the Commonwealth System of …, priority 2012, dated 2017).
Like-named read-outs stand apart in the source and are kept apart here.

B1: EG channel: ELIC extracellular domain fused to human GlyR α1 transmembrane domain; amine-gated Cl- channel, delivered as expression plasmid in vivo (protein)
chain: MGLRALMLWLLAAAGLVRESLQAPADNAADARPVDVSVSIFINKIYGVNTLEQTYKVDGYIVAQWTGKPRKTPGDKPLIVENTQIERWINNGLWVPALEFINVVGSPDTGNKRLMLFPDGRVIYNARFLGSFSNDMDFRLFPFDRQQFVLELEPFSYNNQQLRFSDIQVYTENIDNEEIDEWWIRGKASTHISDIRYDHLSSVQPNQNEFSRITVRIDAVRQMGYYLIQMYIPSLLIVILSWISFWINMDAAPARVGLGITTVLTMTTQSSGSRASLPKVSYVKAIDIWMAVCLLFVFSALLEYAAVNFVSRSQPARAAKIDKISRIGFPMAFLIFNMFYWIRGITL
modifications: Engineered Chloride Channel Receptor
notes: ELIC extracellular domain fused to human GlyR α1 transmembrane domain; amine-gated Cl- channel, delivered as expression plasmid in vivo

How the values were obtained:
[1] = target: T1, EGRAFY mutant (R91A, F188Y; SEQ ID NO: 15) (Dickeya chrysanthemi, UniProt P0C7B7, F187Y/INS163G/R91A); experiment: Two-electrode voltage clamp, amine agonist activation of the EGRAFY mutant in oocytes; assay type: cell-based, Erwinia chrysanthemi / human
T1 construct: expressed in transfected cells; host or cells: Xenopus laevis oocytes
T1 sequence (P0C7B7 other isoform, or with tags, fused parts or gaps R91A/INS163G/F187Y): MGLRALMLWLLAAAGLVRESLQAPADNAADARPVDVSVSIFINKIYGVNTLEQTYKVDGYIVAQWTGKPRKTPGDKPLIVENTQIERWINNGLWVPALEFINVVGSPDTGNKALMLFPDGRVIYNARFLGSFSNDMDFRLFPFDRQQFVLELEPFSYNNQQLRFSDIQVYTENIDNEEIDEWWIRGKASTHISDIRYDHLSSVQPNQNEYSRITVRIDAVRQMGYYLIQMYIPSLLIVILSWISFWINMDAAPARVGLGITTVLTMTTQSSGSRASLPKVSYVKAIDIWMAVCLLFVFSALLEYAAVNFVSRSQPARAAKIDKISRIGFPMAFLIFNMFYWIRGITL
Description: (§1) For pH measurements, 10 mM MES was added. […] Non-linear regressions were performed using Prism software (Graphpad). […] (FIG. 2).

[2] = target: T2, EG3 (SEQ ID NO: 12) ELIC-GlyR (EG) Cl- channel (Dickeya chrysanthemi, UniProt P0C7B7, INS163G); experiment: Two-electrode voltage clamp, amine agonist activation of the EG channel in Xenopus oocytes; assay type: cell-based, Erwinia chrysanthemi / human; details: for Hill slope / Hill coeff.: agonist dose response on EG channel
T2 construct: expressed in transfected cells; host or cells: Xenopus laevis oocytes injected with construct DNA in the pAAV vector
Description: as §1

[3] = tested on: CFA-induced inflammation of the hind paw; experiment: Plantar (Hargreaves) test of thermal hypersensitivity after CFA-induced inflammation; assay type: in vivo, rat
Description: The plantar sensitivity to heat-induced pain was examined using a plantar algesia meter (Model 390G; IITC Life Science, Woodland Hills, Calif.; active intensity, 23%). Rats were placed inside a plastic divider on a constant-temperature glass plate and acclimated to the environment for at least 20 minutes before testing. A heat source was focused directly onto the plantar surface of the hind paw. Once activated, the apparatus applied a continuous heat stimulus to the plantar surface to evoke a distinctive reflex of paw withdrawal. The rats were examined with at least a five-minute interval between consecutive tests. Paw withdrawal latencies were recorded and averaged for each hind paw. A 22-second automatic cut-off time was set to prevent tissue damage from heating.

[4] = tested on: CFA-induced inflammation of the hind paw; details: for mechanical hypersensitivity, EG channel not activated: EG rats before cysteamine versus control group
Description: In one experiment, 8 rats were assigned to two groups to receive either EG expression plasmid or the control plasmid […] the EG insertion. […] Thereafter, inflammation was induced in the same hind paw by complete Freund's adjuvant (CFA) injection (50 μl). Hypersensitivity was measured using a Von Frey pain-testing device after CFA injection. This test measures the maximum force applied to the paw through a flexible thin wire before paw withdrawal. Note that this version of the channel design, EG3 (SEQ ID NO: 12), requires a small agonist molecule (propylamine or cysteamine) to open the Cl^− channels.
Rats were randomly assigned to two groups to receive a subcutaneous injection of 1 mg (in 200 μl) purified EG expression vector into the left hind paw or the control plasmid vector without the EG insertion in an identical fashion. […] After CFA injections, the rats were tested both before and after cysteamine administration to assess the specific analgesic effects from the expressed EG channels.
The Institutional Animal Care and Use Committee at the University of Pittsburgh approved all animal procedures used in the studies. Male Sprague-Dawley rats, weighing 220-250 g, were obtained from Harlan Laboratories, allowed to acclimate to the housing and experimental facilities, evaluated for baseline behavioral response to thermal and mechanical pain, and then subjected to inflammatory pain model and behavioral testing. The expression vectors, 1000 μg in a volume of 200 μl phosphate-buffered saline (PBS), were injected directly into the plantar of the left hind paw with a 27-gauge needle under brief 2.5% isoflurane anesthesia. One week after the vector injection, 50 μl of CFA (Sigma, St. Louis, Mo., USA) were injected into the same hind paw subcutaneously with a 27-gauge needle under brief isoflurane anesthesia, as described previously {Fraser, 2000 #180}.
Animals were placed above a grid floor inside a plastic divider. Thresholds to the mechanical pressures applied directly onto the plantar by a blunt metal filament of 100 mm in length and 0.38 mm in diameter were assessed using a custom-made von Frey apparatus. The apparatus uses a high precision load cell (100 g capacity and 0.01 g accuracy) interfaced with a PASPORT load cell amplifier (Model PS-2205, PASCO Scientific, Roseville, Calif.) for continuously measuring the forces applied to the plantar through the metal filament. The DataStudio software from PASCO Scientific was used to record the entire time course of the applied forces and the maximum force immediately before the paw withdrawal. The threshold values were determined as a mean of at least three separate measurements under each testing condition.
Both von Frey and plantar tests were conducted using the schedule as depicted in FIG. 3a. On each testing day after CFA injection, behavioral evaluations were repeated before and at least 15 min after cysteamine administration. Cysteamine (500 μl of 100 mM solution in PBS) was injected subcutaneously elsewhere on the body to prevent tissue damage from repeated injections.

[5] = prescription drug for cystinosis; cited from earlier work
ELIC-GlyR chimeras = experiment: Cysteamine response of ELIC-GlyR chimera constructs in Xenopus oocytes; assay type: cell-based, Erwinia chrysanthemi / human
Description: The EG chimera was constructed by fusing the extracellular domain of ELIC with the transmembrane domain of the α1 subunit of human GlyR. Five constructs were made to test the importance of interface elements at the fusion junction (pre-TM1), the loop between transmembrane helices 2 and 3 (TM23), and C-terminus (Figure S1 a). In addition, the long cytoplasmic loop was removed to facilitate homogeneous expression (i.e., “VSR . . . KID” was replaced with “[…]”). All designed constructs expressed functional channels in Xenopus oocytes and were responsive to the agonist cysteamine. The constructs mostresponsive to cysteamine, EG and EGd (Figure S1 b), included a native GlyR TM23 loop and an ELIC C-terminus (Figure S1). The fusion junction had less effect on cysteamine response (compare EG and EGd).

EG channel = EG channel (Dickeya chrysanthemi, UniProt P0C7B7, INS163G)
Description: Non-linear regressions were performed using Prism software (Graphpad).

Row | Molecule | increase in potency in the EGRAFY mutant as compared to the EG channel [1] | Hill coeff. ([1]; EGRAFY mutant, n=6) | EC50 [2] | Hill slope / Hill coeff. [2] | thermal hypersensitivity after cysteamine administration ([3]; control plasmid rats (no EG), after CFA) | thermal hypersensitivity after cysteamine administration ([3]; rats expressing EG, after CFA) | mechanical hypersensitivity / pain scores after cysteamine administration ([4]; control plasmid rats (no EG), after CFA, listed as Cysteamine) | safety in clinical use [5] | hypersensitivity to heat-induced pain, EG channel not activated ([3]; EG rats before cysteamine versus control group) | latency to paw withdrawal, EG injection compared to the control ([3]; after CFA, EG n=4, control n=5) | mechanical hypersensitivity, EG channel not activated ([4]; after CFA) | mechanical hypersensitivity, EG channel not activated ([4]; after CFA, listed as EG) | mechanical hypersensitivity, EG channel not activated ([4]; after CFA, listed as EG channels) | basal mechanical and thermal thresholds ([4]; rat, in vivo) | cysteamine response of the construct (ELIC-GlyR chimeras) | shift in reversal potential upon replacing Na+ with choline (EG channel) | shift in reversal potential upon replacing Cl- with gluconate (EG channel; 130 mM external solution)
1 | CCCN [propylamine] | ~3 orders of magnitude | 0.98±0.07 | 740 ± 110 µM | 0.5±0.04 | – | – | – | – | – | – | – | – | – | – | – | – | –
2 | NCCS [cysteamine] | – | – | 960 ± 120 µM | 1.1±0.1 | not inherently an analgesic | significantly attenuated | no analgesia | safe with no psychoactive effects | – | – | – | – | – | – | – | – | –
3 | B1 | – | – | – | – | – | – | – | – | partially alleviated | significant attenuation of thermal hypersensitivity | did not produce measurable changes | no measureable effects | little measurable changes | neither EG nor the control plasmids caused measureable changes | mostresponsive | no significant shift | 50 mV
